# Target: T1, full length active recombinant SYK enzyme (Homo sapiens, UniProt P43405)
# T1 construct: full length active recombinant SYK enzyme (Millipore, Calif.); purchased Millipore
# Test: Inhibition of Syk tyrosine phosphorylation activity (LANCE TR-FRET kinase assay)
# Assay type: biochemical
# Conditions: 1 nM active SYK enzyme, 550 nM SYK-substrate, 100 μM ATP, 1 hour at room temperature
row,Compound,IC50
1,"NC(=O)c1nnc(N[C@@H]2CCCC[C@@H]2N)nc1Nc1cnc2c(F)cccc2c1 [Example 160, 3-(((1R,2S)-2-aminocyclohexyl)amino)-5-((8-fluoroquinolin-3-yl)amino)-1,2,4-triazine-6-carboxamide]",1 to 10 nM
2,"CN(C)c1ccc(Nc2nc(N[C@@H]3CCCC[C@@H]3N)nnc2C(N)=O)cc1F [Example 161, 3-(((1R,2S)-2-aminocyclohexyl)amino)-5-((4-(dimethylamino)-3-fluorophenyl)amino)-1,2,4-triazine-6-carboxamide]",10 to 100 nM
3,"CC[C@@H](Nc1nnc(C(N)=O)c(Nc2ccc(N(C)C)c(F)c2)n1)C(N)=O [Example 162, (R)-3-((1-amino-1-oxobutan-2-yl)amino)-5-((4-(dimethylamino)-3-fluorophenyl)amino)-1,2,4-triazine-6-carboxamide]",10 to 100 nM
4,"CC[C@@H](Nc1nnc(C(N)=O)c(Nc2ccc3ccn(C)c3c2)n1)C(N)=O [Example 163, (R)-3-((1-amino-1-oxobutan-2-yl)amino)-5-((1-methyl-1H-indol-6-yl)amino)-1,2,4-triazine-6-carboxamide]",10 to 100 nM
5,"C[C@@H](Nc1nnc(C(N)=O)c(Nc2ccc3ccn(C)c3c2)n1)C(N)=O [Example 164, (R)-3-((1-amino-1-oxopropan-2-yl)amino)-5-((1-methyl-1H-indol-6-yl)amino)-1,2,4-triazine-6-carboxamide]",10 to 100 nM
6,"Cn1ccc2ccc(Nc3nc(N[C@@H]4CCOC[C@@H]4N)nnc3C(N)=O)cc21 [Example 165, 3-(((3R,4R)-3-aminotetrahydro-2H-pyran-4-yl)amino)-5-((1-methyl-1H-indol-6-yl)amino)-1,2,4-triazine-6-carboxamide]",1 to 10 nM
7,"Cn1ccc2ccc(Nc3nc(N[C@@H]4CCCC(F)(F)[C@@H]4N)nnc3C(N)=O)cc21 [Example 166, 3-(((1R,2R)-2-amino-3,3-difluorocyclohexyl)amino)-5-((1-methyl-1H-indol-6-yl)amino)-1,2,4-triazine-6-carboxamide]",10 to 100 nM
8,"Cc1ccc(Nc2nc(N[C@@H]3CCCC(F)(F)[C@@H]3N)nnc2C(N)=O)cc1 [Example 167, 3-(((1R,2R)-2-amino-3,3-difluorocyclohexyl)amino)-5-(p-tolylamino)-1,2,4-triazine-6-carboxamide]",10 to 100 nM
9,"NC(=O)c1nnc(N[C@@H]2CCCC[C@@H]2N)nc1Nc1ccc(C(F)(F)F)cc1 [Example 168, 3-(((1R,2S)-2-aminocyclohexyl)amino)-5-((4-(trifluoromethyl)phenyl)amino)-1,2,4-triazine-6-carboxamide]",10 to 100 nM
10,"CC[C@@H](Nc1nnc(C(N)=O)c(Nc2ccc(C(F)(F)F)cc2)n1)C(N)=O [Example 169, (R)-3-((1-amino-1-oxobutan-2-yl)amino)-5-((4-(trifluoromethyl)phenyl)amino)-1,2,4-triazine-6-carboxamide]",10 to 100 nM
11,"NC(=O)c1nnc(N[C@@H]2CCCC[C@@H]2N)nc1Nc1cccc(C(F)(F)F)c1 [Example 170, 3-(((1R,2S)-2-aminocyclohexyl)amino)-5-((3-(trifluoromethyl)phenyl)amino)-1,2,4-triazine-6-carboxamide]",1 to 10 nM
12,"CC[C@@H](Nc1nnc(C(N)=O)c(Nc2cccc(C(F)(F)F)c2)n1)C(N)=O [Example 171, (R)-3-((1-amino-1-oxobutan-2-yl)amino)-5-((3-(trifluoromethyl)phenyl)amino)-1,2,4-triazine-6-carboxamide]",100 to 1000 nM
13,"Cn1cc(C#N)c2ccc(Nc3nc(N[C@@H]4CCOC[C@@H]4N)nnc3C(N)=O)cc21 [Example 172, 3-(((3R,4R)-3-aminotetrahydro-2H-pyran-4-yl)amino)-5-((3-cyano-1-methyl-1H-indol-6-yl)amino)-1,2,4-triazine-6-carboxamide]",1 to 10 nM
14,"Cn1cc(C#N)c2ccc(Nc3nc(N[C@@H]4CCCC(F)(F)[C@@H]4N)nnc3C(N)=O)cc21 [Example 173, 3-(((1R,2R)-2-amino-3,3-difluorocyclohexyl)amino)-5-((3-cyano-1-methyl-1H-indol-6-yl)amino)-1,2,4-triazine-6-carboxamide]",10 to 100 nM
15,"CC[C@@H](Nc1nnc(C(N)=O)c(Nc2ccc(OC)c(Cl)c2)n1)C(N)=O [Example 174, (R)-3-((1-amino-1-oxobutan-2-yl)amino)-5-((3-chloro-4-methoxyphenyl)amino)-1,2,4-triazine-6-carboxamide]",10 to 100 nM
16,"CN(C)c1ccc(Nc2nc(N[C@@H]3CCCC[C@@H]3N)nnc2C(N)=O)cc1Cl [Example 175, 3-(((1R,2S)-2-aminocyclohexyl)amino)-5-((3-chloro-4-(dimethylamino)phenyl)amino)-1,2,4-triazine-6-carboxamide]",1 to 10 nM
17,"NC(=O)c1nnc(N[C@@H]2CCCC[C@@H]2N)nc1Nc1cc(Cl)c2ncccc2c1 [Example 176, 3-(((1R,2S)-2-aminocyclohexyl)amino)-5-((8-chloroquinolin-6-yl)amino)-1,2,4-triazine-6-carboxamide]",< 1 nM
18,"CC[C@@H](Nc1nnc(C(N)=O)c(Nc2cc(Cl)c3ncccc3c2)n1)C(N)=O [Example 177, (R)-3-((1-amino-1-oxobutan-2-yl)amino)-5-((8-chloroquinolin-6-yl)amino)-1,2,4-triazine-6-carboxamide]",1 to 10 nM

row,Compound,IC50
1,"Cn1cc(C#N)c2ccc(Nc3nc(N[C@H](CC4CC4)C(N)=O)nnc3C(N)=O)cc21 [Example 178, (R)-3-((1-amino-3-cyclopropyl-1-oxopropan-2-yl)amino)-5-((3-cyano-1-methyl-1H-indol-6-yl)amino)-1,2,4-triazine-6-carboxamide]",1 to 10 nM
2,"CC[C@@H](Nc1nnc(C(N)=O)c(Nc2ccc3cn(C)nc3c2)n1)C(N)=O [Example 179, (R)-3-((1-amino-1-oxobutan-2-yl)amino)-5-((2-methyl-2H-indazol-6-yl)amino)-1,2,4-triazine-6-carboxamide]",1 to 10 nM
3,"CC[C@@H](Nc1nnc(C(N)=O)c(Nc2ccc3cnn(C)c3c2)n1)C(N)=O [Example 180, (R)-3-((1-amino-1-oxobutan-2-yl)amino)-5-((1-methyl-1H-indazol-6-yl)amino)-1,2,4-triazine-6-carboxamide]",1 to 10 nM
4,"Cn1cc2ccc(Nc3nc(N[C@@H]4CCCC[C@@H]4N)nnc3C(N)=O)cc2n1 [Example 181, 3-(((1R,2S)-2-aminocyclohexyl)amino)-5-((2-methyl-2H-indazol-6-yl)amino)-1,2,4-triazine-6-carboxamide]",1 to 10 nM
5,"Cn1ncc2ccc(Nc3nc(N[C@@H]4CCCC[C@@H]4N)nnc3C(N)=O)cc21 [Example 182, 3-(((1R,2S)-2-aminocyclohexyl)amino)-5-((1-methyl-1H-indazol-6-yl)amino)-1,2,4-triazine-6-carboxamide]",< 1 nM
6,"CC[C@@H](Nc1nnc(C(N)=O)c(Nc2ccc3c(c2)c(C#N)cn3C)n1)C(N)=O [Example 183, (R)-3-((1-amino-1-oxobutan-2-yl)amino)-5-((3-cyano-1-methyl-1H-indol-5-yl)amino)-1,2,4-triazine-6-carboxamide]",< 1 nM
7,"Cn1ncc2ccc(Nc3nc(N[C@H](CC(F)F)C(N)=O)nnc3C(N)=O)cc21 [Example 184, (R)-3-((1-amino-4,4-difluoro-1-oxobutan-2-yl)amino)-5-((1-methyl-1H-indazol-6-yl)amino)-1,2,4-triazine-6-carboxamide]",< 1 nM
8,"NC(=O)c1nnc(N[C@H](CC(F)F)C(N)=O)nc1Nc1cc(Cl)c2ncccc2c1 [Example 185, (R)-3-((1-amino-4,4-difluoro-1-oxobutan-2-yl)amino)-5-((8-chloroquinolin-6-yl)amino)-1,2,4-triazine-6-carboxamide]",1 to 10 nM
9,"COc1cc(Nc2nc(N[C@H](CC(C)C)C(N)=O)nnc2C(N)=O)ccn1 [Example 186, (R)-3-(1-amino-4-methyl-1-oxopentan-2-ylamino)-5-(2-methoxypyridin-4-ylamino)-1,2,4-triazine-6-carboxamide]",10 to 100 nM
10,"COC[C@@H](Nc1nnc(C(N)=O)c(Nc2ccc(C)cc2)n1)C(N)=O [Example 187, (R)-3-(1-amino-3-methoxy-1-oxopropan-2-ylamino)-5-(p-tolylamino)-1,2,4-triazine-6-carboxamide]",100 to 1000 nM
11,"Cc1ccc(Nc2nc(N[C@H](Cc3cccs3)C(N)=O)nnc2C(N)=O)cc1 [Example 188, (R)-3-(1-amino-1-oxo-3-(thiophen-2-yl)propan-2-ylamino)-5-(p-tolylamino)-1,2,4-triazine-6-carboxamide]",10 to 100 nM
12,"Cc1ccc(Nc2nc(N[C@H](Cc3ccc(F)cc3)C(N)=O)nnc2C(N)=O)cc1 [Example 189, (R)-3-(1-amino-3-(4-fluorophenyl)-1-oxopropan-2-ylamino)-5-(p-tolylamino)-1,2,4-triazine-6-carboxamide]",10 to 100 nM
13,"Cc1ccc(Nc2nc(N[C@H](Cc3cccc(F)c3)C(N)=O)nnc2C(N)=O)cc1 [Example 190, (R)-3-(1-amino-3-(3-fluorophenyl)-1-oxopropan-2-ylamino)-5-(p-tolylamino)-1,2,4-triazine-6-carboxamide]",10 to 100 nM
14,"Cc1ccc(Nc2nc(N[C@@H](C(N)=O)c3ccccc3)nnc2C(N)=O)cc1 [Example 191, (R)-3-(2-amino-2-oxo-1-phenylethylamino)-5-(p-tolylamino)-1,2,4-triazine-6-carboxamide]",100 to 1000 nM
15,"CC[C@@H](Nc1nnc(C(N)=O)c(Nc2cccc(Cl)c2)n1)C(N)=O [Example 194, (R)-3-((1-amino-1-oxobutan-2-yl)amino)-5-((3-chlorophenyl)amino)-1,2,4-triazine-6-carboxamide]",10 to 100 nM
16,"CC[C@@H](Nc1nnc(C(N)=O)c(Nc2cccc(F)c2)n1)C(N)=O [Example 195, (R)-3-((1-amino-1-oxobutan-2-yl)amino)-5-((3-fluorophenyl)amino)-1,2,4-triazine-6-carboxamide]",10 to 100 nM
17,"CC[C@@H](Nc1nnc(C(N)=O)c(Nc2ccc(C)c(F)c2)n1)C(N)=O [Example 196, (R)-3-((1-amino-1-oxobutan-2-yl)amino)-5-((3-fluoro-4-methylphenyl)amino)-1,2,4-triazine-6-carboxamide]",10 to 100 nM
